Data on eight compounds can be found in ChEMBL document CHEMBL5465560, “Selectivity Literature for EUbOPEN Chemogenomic Library” (2024).

Structures are written as SMILES.

Assay [1] has as its target ALK tyrosine kinase receptor (Homo sapiens, UniProt Q9UM73). Description: Selectivity interaction (KinomeScan (DiscoverX)) EUB0000595a ALK. As to conditions: at 10 µM.
Assay [2] has as its target T1, Mitogen-activated protein kinase kinase kinase 12 (Homo sapiens) (UniProt Q12852).
T1 sequence (whole entry): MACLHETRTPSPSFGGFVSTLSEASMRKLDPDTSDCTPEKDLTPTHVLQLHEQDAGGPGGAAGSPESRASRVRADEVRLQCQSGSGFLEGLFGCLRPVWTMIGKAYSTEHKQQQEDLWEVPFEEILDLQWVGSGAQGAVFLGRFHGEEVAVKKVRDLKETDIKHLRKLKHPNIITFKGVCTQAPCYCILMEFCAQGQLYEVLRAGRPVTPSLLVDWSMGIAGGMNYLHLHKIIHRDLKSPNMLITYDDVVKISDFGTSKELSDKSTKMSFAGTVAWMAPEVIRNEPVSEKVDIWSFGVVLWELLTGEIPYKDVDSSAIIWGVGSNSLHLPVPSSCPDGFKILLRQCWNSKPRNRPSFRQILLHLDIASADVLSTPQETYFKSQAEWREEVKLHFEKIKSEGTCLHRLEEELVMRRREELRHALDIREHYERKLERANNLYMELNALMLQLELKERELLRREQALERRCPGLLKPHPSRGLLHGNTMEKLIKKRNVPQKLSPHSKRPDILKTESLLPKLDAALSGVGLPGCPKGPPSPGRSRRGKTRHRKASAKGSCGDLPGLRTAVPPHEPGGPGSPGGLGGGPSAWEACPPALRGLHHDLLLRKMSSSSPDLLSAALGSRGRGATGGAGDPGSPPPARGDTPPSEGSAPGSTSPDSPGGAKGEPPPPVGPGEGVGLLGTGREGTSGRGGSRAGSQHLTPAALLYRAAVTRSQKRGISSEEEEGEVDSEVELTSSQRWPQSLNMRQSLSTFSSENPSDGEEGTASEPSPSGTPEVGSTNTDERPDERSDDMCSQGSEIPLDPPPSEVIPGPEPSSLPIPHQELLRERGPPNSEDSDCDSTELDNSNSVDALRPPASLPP
Description: Selectivity interaction (KinomeScan (DiscoverX)) EUB0000666a MAP3K12. As to conditions: at 10 µM.

Assay [3] addresses Serine/threonine-protein kinase 10 (Homo sapiens) (UniProt O94804). Description: Selectivity interaction (KinomeScan (DiscoverX)) EUB0000607a STK10. As to conditions: at 10 µM.
For assay [4], the target named is Serine/threonine-protein kinase mTOR (Homo sapiens, UniProt P42345). The settings on record: at 10 µM.
The target of assay [5] is Casein kinase I isoform epsilon (Homo sapiens, UniProt P49674). Description: Selectivity interaction (ActivX KiNativ screen (kinase selectivity in THP-1 cell lysates)) EUB0000639a CSNK1E. The format is subcellular. The settings on record: lysate.
Sequence of Casein kinase I isoform epsilon (P49674 whole entry, looked up, canonical isoform): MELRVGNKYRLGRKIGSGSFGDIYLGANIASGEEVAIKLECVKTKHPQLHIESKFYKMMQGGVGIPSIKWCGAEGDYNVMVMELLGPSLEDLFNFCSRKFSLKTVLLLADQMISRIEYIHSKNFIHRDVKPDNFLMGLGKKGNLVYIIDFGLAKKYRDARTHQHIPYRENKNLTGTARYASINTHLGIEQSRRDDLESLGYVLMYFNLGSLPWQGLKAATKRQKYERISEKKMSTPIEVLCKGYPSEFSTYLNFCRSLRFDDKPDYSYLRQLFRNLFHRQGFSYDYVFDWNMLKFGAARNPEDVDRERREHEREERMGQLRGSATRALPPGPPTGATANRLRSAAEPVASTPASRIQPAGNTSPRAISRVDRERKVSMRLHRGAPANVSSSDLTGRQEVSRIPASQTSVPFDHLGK
The target in assay [6] is Glycogen synthase kinase-3 beta (Homo sapiens, UniProt P49841). Nature of the assay: Selectivity interaction (Ambit KINOMEscan and KiNATiv profiling in Jurkat cells) EUB0000090b GSK3B. The format is cell-based. As to conditions: at 1 µM.
Sequence of Glycogen synthase kinase-3 beta (P49841 whole entry, looked up): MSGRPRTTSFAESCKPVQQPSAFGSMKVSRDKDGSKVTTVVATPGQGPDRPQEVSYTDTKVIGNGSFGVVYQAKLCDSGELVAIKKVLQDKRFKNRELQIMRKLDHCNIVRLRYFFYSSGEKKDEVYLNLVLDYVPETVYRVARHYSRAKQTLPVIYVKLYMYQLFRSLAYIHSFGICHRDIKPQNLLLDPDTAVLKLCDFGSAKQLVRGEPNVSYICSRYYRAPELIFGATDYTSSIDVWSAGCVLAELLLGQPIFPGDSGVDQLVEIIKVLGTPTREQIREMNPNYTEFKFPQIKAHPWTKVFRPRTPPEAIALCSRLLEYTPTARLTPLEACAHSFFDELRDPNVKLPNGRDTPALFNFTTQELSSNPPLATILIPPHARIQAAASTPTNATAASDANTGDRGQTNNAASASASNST
Assay [7] concerns the target T2, Ephrin type-B receptor 3 (Homo sapiens) (UniProt P54753).
T2 sequence (whole entry): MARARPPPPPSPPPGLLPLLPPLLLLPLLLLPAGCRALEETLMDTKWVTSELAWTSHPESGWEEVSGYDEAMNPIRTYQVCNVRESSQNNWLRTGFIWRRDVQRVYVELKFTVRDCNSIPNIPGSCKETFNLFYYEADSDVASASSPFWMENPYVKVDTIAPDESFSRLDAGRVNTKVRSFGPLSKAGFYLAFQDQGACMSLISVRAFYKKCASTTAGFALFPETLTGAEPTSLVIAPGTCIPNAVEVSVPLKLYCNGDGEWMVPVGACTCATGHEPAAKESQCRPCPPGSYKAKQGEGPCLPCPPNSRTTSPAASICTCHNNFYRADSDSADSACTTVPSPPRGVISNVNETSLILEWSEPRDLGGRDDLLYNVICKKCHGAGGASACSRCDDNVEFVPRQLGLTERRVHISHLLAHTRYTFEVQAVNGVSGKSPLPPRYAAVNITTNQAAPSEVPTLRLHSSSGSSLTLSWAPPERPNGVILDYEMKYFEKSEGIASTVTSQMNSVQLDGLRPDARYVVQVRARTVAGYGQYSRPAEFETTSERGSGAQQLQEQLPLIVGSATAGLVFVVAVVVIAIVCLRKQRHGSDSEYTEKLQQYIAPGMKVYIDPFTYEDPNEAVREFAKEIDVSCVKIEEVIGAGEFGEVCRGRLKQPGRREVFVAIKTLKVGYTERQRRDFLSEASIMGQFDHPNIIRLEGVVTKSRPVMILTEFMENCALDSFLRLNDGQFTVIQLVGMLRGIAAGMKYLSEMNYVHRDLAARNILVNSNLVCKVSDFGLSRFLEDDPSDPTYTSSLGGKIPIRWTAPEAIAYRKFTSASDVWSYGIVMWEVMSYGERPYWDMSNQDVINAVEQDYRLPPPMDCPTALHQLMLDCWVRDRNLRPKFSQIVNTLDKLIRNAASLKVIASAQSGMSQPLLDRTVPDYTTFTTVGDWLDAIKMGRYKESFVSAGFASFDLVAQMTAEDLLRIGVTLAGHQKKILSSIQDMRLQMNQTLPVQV
Nature of the assay: Selectivity interaction (KinomeScan (DiscoverX)) EUB0000618a EPHB3. As to conditions: at 10 µM.

Assay [8] has as its target T3, Lymphokine-activated killer T-cell-originated protein kinase (Homo sapiens) (UniProt Q96KB5).
T3 sequence (whole entry): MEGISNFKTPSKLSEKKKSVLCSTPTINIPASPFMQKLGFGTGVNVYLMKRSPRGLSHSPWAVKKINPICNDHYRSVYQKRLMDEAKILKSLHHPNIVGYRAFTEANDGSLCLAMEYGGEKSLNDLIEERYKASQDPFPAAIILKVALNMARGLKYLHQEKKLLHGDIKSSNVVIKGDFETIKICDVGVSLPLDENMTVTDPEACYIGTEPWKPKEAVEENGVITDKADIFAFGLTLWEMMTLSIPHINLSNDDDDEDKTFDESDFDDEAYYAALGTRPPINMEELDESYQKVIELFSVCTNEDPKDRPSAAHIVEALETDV
Description: Selectivity interaction (Kinase panel (DSF assay)) EUB0001558a PBK.

Sequence of Serine/threonine-protein kinase 10 (Homo sapiens) (O94804 whole entry, looked up): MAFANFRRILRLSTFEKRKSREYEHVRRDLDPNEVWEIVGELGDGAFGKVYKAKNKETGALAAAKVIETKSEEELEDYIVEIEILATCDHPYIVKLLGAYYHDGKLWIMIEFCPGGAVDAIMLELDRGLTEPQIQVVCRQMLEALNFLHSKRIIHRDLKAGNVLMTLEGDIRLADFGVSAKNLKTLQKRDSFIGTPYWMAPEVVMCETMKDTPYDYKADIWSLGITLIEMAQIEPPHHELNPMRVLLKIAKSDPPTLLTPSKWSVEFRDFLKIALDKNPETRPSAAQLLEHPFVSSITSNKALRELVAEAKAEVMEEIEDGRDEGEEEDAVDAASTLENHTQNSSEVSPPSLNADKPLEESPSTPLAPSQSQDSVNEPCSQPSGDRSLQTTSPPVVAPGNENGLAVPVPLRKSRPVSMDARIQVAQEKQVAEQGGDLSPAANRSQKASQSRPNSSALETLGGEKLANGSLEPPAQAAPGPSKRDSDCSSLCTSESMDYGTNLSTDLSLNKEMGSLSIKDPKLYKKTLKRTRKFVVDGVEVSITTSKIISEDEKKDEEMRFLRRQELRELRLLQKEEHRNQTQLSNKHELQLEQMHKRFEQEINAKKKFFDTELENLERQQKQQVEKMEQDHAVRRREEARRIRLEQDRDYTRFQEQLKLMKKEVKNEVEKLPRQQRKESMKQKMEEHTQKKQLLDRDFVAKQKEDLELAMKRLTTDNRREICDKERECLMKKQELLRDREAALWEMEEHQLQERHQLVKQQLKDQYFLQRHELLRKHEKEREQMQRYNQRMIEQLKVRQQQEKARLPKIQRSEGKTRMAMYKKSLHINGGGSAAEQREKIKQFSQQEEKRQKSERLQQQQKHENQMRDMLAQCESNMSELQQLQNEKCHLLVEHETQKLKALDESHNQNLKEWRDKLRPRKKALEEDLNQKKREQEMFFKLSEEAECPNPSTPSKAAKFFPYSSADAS
Sequence of ALK tyrosine kinase receptor (Q9UM73 19-1620 limits assumed): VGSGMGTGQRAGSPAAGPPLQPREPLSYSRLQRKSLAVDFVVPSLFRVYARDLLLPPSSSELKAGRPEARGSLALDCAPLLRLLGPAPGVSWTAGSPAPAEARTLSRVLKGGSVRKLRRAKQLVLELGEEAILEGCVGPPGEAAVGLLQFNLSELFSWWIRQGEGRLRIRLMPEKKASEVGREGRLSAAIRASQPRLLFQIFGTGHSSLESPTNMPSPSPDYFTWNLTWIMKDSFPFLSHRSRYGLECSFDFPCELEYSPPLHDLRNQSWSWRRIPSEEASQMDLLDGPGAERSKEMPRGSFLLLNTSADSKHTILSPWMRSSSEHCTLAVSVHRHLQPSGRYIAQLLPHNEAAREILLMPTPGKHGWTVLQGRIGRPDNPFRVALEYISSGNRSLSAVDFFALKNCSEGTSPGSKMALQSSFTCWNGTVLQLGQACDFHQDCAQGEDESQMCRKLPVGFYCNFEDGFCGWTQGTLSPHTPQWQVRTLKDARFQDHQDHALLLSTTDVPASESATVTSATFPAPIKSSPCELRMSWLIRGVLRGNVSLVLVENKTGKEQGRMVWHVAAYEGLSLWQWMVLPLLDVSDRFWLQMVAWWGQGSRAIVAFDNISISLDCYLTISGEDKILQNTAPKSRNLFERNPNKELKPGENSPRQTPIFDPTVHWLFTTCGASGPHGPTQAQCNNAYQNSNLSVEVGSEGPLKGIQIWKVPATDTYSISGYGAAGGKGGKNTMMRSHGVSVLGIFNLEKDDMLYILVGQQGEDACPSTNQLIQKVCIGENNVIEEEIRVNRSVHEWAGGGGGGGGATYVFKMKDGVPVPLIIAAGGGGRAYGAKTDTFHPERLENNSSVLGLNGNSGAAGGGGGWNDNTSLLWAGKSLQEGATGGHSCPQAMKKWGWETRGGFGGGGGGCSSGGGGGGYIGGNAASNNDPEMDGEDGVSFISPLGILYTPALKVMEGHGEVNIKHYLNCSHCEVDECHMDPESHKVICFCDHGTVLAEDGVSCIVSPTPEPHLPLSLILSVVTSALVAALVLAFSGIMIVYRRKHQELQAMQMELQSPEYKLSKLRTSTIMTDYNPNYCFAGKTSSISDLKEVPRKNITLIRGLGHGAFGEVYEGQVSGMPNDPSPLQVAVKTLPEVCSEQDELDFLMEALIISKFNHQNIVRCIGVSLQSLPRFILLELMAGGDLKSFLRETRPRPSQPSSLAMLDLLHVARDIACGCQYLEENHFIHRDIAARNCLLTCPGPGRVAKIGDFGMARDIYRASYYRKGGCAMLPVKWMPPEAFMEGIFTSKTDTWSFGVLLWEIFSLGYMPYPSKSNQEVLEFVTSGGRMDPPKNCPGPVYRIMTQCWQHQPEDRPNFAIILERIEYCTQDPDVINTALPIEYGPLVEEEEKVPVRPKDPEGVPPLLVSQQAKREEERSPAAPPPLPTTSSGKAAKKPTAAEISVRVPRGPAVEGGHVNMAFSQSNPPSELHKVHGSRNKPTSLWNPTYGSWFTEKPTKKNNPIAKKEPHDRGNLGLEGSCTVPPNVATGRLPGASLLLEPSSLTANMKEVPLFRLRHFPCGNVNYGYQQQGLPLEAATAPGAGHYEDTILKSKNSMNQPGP

`COCC(=O)NC/C=C/c1ccc2ncnc(Nc3ccc(Oc4ccc(C)nc4)c(C)c3)c2c1` [CP-724714] displayed a % of control in assay [1] of 100%.
For `O=C(NOC[C@H](O)CO)c1ccc(F)c(F)c1Nc1ccc(I)cc1F`, the % of control in assay [2] turned out to be 78%.
On to `CNC(=O)Nc1ccc(-c2nc(N3CC4CCC(C3)O4)c3cnn(C4CCC5(CC4)OCCO5)c3n2)cc1`, for which, in assay [3], the % of control worked out at 99%.
As to `Cc1cc([C@@H](C)Nc2ccccc2C(=O)O)c2nc(N3CCOCC3)cc(=O)n2c1` [AZD-6482], the % of control in assay [4] worked out at 11%.
As for `CC[C@@H]1[C@H](F)C(=O)N[C@@H]1COc1nccc2cc(C(N)=O)c(OC)cc12` [ZIMLOVISERTIB], the % of inhibition in assay [5] (at 0.01 µM) was -6.6%; in assay [5] (at 0.04 µM) it was 20.3%; in assay [5] (at 0.2 µM) it was 53%; in assay [5] (at 1 µM), 77.8%; in assay [5] (at 5 µM), 94.8%.
Compound `CN(C)C/C=C/C(=O)Nc1ccc(C(=O)N2CCCC(Nc3ncc(Cl)c(-c4c[nH]c5ccccc45)n3)C2)cc1` (configuration not stated) had a % of control in assay [6] of 38%.
With `O[C@H]1CC[C@H](Nc2ncc3nc(Nc4c(F)cc(F)cc4F)n([C@H]4CCOC4)c3n2)CC1`, the % of control in assay [7] came to 84%.
On to `CC(C)(O)[C@H](F)CN1Cc2cc(NC(=O)c3cnn4cccnc34)c(N3CCOCC3)cc2C1=O`, for which the dTM in assay [8] is -1.2 K.
